ChEMBL document CHEMBL1137394, “Configurationally restricted bismacrocyclic CXCR4 receptor antagonists” (J Med Chem, 2006)
Calls of active or inactive are those of the source. The calls are words filed in the database; no cut-off is given here.

Tests used:
[1] = test system: Human immunodeficiency virus 2; assay: Antiviral activity against HIV2 ROD assessed as reduction in cytopathic effect in MT4 cells; format: functional, organism-based; conditions: Human immunodeficiency virus 2, ROD
[2] = test system: MT4; assay: Selectivity index, EC50 against HIV1 3B/CC50 against MT4 cells; format: functional, Human immunodeficiency virus 1
[3] = target: C-X-C chemokine receptor type 4 (Homo sapiens) (UniProt P61073); assay: Binding affinity to CXCR4 by flow cell cytometry; format: functional
Chain of C-X-C chemokine receptor type 4 (Homo sapiens) (P61073 whole entry): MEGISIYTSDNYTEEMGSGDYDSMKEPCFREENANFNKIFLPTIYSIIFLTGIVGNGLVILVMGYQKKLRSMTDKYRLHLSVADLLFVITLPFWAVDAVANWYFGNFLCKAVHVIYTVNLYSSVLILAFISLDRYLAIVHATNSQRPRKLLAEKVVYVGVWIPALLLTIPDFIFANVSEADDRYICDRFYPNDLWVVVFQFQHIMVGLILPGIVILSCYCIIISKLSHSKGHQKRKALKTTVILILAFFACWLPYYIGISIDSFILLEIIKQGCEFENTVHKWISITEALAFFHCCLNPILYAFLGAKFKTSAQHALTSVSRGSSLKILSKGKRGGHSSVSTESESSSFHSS

[4] = test system: MT4; assay: Selectivity index, EC50 against HIV2 ROD/CC50 against MT4 cells; format: functional, Human immunodeficiency virus 2
[5] = test system: MT4; assay: Cytotoxicity against human MT4 cells; format: functional
[6] = test system: Human immunodeficiency virus 1; assay: Antiviral activity against HIV1 3B assessed as reduction in cytopathic effect in MT4 cells; format: functional, organism-based; conditions: Human immunodeficiency virus 1, 3B

For c1cc(CN2CCCN3CCN(CCCNCC2)CC3)ccc1CN1CCCN2CCN(CCCNCC1)CC2, the EC50 [1] was 23.2 µM, the Selectivity index [2] was greater than 32 and the Activity [3] was “Active”. It also gave a Selectivity index [4] greater than 10, a CC50 [5] greater than 225 µM and an EC50 [6] of 6.98 µM.
